Test results published in patent US20090221581A1, “Methods of treating pain” (priority 2005, published 2009).

Tests used:
carrageenan-treated mice = test: Carrageenan assay, paw edema; assay type: in vivo; conditions: 30 mg/kg i.p. 30 min prior to carrageenan
Source text: The model of carrageenan-induced paw edema constitutes a standard laboratory assay used to predict anti-inflammatory activity of therapeutically active compounds and reduction of inflammation-induced pain perception achieved by administration of therapeutically active compounds.
The basic measurement constitutes in the measurement of edema size and of mechanical as well as thermal hypersensitivity in response to irritants, such as carrageenan.
Inflammation and subsequent inflammatory pain is induced by subcutaneous injection of 25 μl of 1% carrageenan (in saline) into the hind paw (ipsi-lateral paw) of mice. Groups of 10 mice each received compound A, 30 mg/kg body weight, vehicle (DMA/Labrafil; 10:90) and saline (physiol. NaCl) by i.p. injection 30 min prior to carrageenan injection.
Paw edema induced by carrageenan injection was detected by increased paw size measured from dorsal to plantar at the metatarsus region of the injected (ipsi-lateral) paws. Sizes of ipsi- and contra-lateral paws (see FIG. 6, paw size [mm]) served as surrogate markers for inflammation and were measured at several time points after carrageenan injection: 1 h before injection (−1), immediately after injection, 1 h (1), 2 h (2), 4 h (4), 5 h (5), 6 h (6), 7 h (7), 24 h (24), 48 h (48), 72 h (72), 96 h (96), and 98 h (98) after injection. […]

CDK7/CycH/MAT1 = biological target: T1, CDK7/CycH/MAT1 (Homo sapiens, UniProt P50613); test: In vitro kinase inhibition assay, CDK7/CycH/MAT1; assay type: biochemical
T1 construct: made in house; host or cells: Sf9 insect cells, baculovirus

CDK2/CycA = biological target: T2, CDK2/CycA (Homo sapiens, UniProt P24941); test: In vitro kinase inhibition assay, CDK2/CycA; assay type: biochemical
T2 construct: host or cells: Sf9 insect cells, baculovirus
Description: In vitro kinase inhibition assays may be performed according to the following protocol:
Compounds are used as 1×10^−02 M stock solutions in 100% DMSO, 100 μl each in column 2 of three 96-well V-shaped microtiter plates (in the following, said plates are referred to as “master plates”).
Subsequently, the 1×10^−02 M stock solutions in column 2 of the master plates are subjected to a serial, semi-logarithmic dilution using 100% DMSO as a solvent, resulting in 10 different concentrations, the dilution endpoint being 3×10^−07 M/100% DMSO in column 12. Column 1 and 7 are filled with 100% DMSO as controls. […]
For the determination of inhibitory profiles, the following protein kinases were used: CDK2/CycA, CDK4/CycD1, CDK6/CycD1 and CDK9/CycT. […] The purity of each kinase is determined by SDS-PAGE/silver staining and the identity of each kinase is verified by western blot analysis with kinase specific antibodies or by mass spectroscopy. […]
Reaction mixtures are incubated at 30° C. for 80 minutes. […] Incorporation of ^33P is determined with a microplate scintillation counter (Microbeta, Wallac). […]
The median value of the counts in column 1 (n=8) of each assay plate is defined as “low control”. This value reflects unspecific binding of radioactivity to the plate in the absence of a protein kinase but in the presence of the substrate. […]

T1 sequence (P50613 whole entry): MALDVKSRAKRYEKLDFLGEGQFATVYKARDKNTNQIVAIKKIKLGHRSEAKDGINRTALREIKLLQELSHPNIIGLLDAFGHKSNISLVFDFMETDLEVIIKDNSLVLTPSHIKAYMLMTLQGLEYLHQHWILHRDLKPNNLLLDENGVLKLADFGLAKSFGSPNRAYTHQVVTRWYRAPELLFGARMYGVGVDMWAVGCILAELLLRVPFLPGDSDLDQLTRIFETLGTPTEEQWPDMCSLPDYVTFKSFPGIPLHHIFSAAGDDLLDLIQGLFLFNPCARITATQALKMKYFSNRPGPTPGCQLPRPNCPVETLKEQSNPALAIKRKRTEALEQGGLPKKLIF
T1 sequence (P51946 whole entry partner): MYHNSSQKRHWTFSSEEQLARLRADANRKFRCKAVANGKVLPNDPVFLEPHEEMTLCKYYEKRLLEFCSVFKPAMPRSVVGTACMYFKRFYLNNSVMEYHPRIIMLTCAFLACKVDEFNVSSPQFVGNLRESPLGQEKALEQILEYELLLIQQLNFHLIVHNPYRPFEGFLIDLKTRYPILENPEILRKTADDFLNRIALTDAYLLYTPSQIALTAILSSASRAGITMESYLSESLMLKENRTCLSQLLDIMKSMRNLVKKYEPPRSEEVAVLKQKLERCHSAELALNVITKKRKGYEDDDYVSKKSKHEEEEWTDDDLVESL
T1 sequence (P51948 whole entry partner): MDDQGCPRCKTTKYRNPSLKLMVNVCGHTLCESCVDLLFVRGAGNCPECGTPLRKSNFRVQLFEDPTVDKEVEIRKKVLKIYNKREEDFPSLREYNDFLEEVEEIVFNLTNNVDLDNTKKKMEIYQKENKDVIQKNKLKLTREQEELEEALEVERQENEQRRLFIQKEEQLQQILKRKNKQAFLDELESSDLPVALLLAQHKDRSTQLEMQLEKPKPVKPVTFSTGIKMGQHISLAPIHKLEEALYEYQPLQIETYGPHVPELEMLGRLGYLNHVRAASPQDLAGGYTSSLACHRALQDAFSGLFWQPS

Question: `COc1ccccc1-c1cc(Nc2cccc(S(N)(=O)=O)c2)ncn1` [Compound A] was tested. Which “increase in paw size” value (carrageenan-treated mice; 24 h after carrageenan injection (control mice 30%)) did it give?
Answer: 8%

Question: And the “increase in paw size” value (carrageenan-treated mice; within the first hour after carrageenan injection)?
Answer: 10%

Question: What about the IC50 (CDK7/CycH/MAT1) of the same compound?
Answer: 10 µM

Question: And the IC50 (CDK2/CycA)?
Answer: 10.1 µM
